Reference: the NIST ThermoML archive (doi:10.1016/j.jct.2007.09.004)

Key:
[1] = 101 kPa, Liquid
[2] = relative permittivity at zero frequency (dimensionless); settings: 101 kPa, Liquid, Parallel plate capacitor
[3] = xn = mol fraction of the nth substance listed; settings: 101 kPa, Liquid
[4] = relative permittivity at zero frequency (dimensionless); xn = mol fraction of the nth substance listed; settings: 101 kPa, Liquid, Parallel plate capacitor

CCCOCCO [2-propoxyethanol]
Settings	mass density, 293.15 K [kg/m3]	mass density, 298.15 K [kg/m3]	mass density, 303.15 K [kg/m3]	relative permittivity at zero frequency, 293.15 K	relative permittivity at zero frequency, 298.15 K	relative permittivity at zero frequency, 303.15 K
[1]	913.31	908.19	903.11	–	–	–
[2]	–	–	–	11.76	11.5	11.19

CCCOCCO [2-propoxyethanol] + OCCOCCO
Settings	mass density, 293.15 K [kg/m3]	mass density, 298.15 K [kg/m3]	mass density, 303.15 K [kg/m3]	relative permittivity at zero frequency, 293.15 K	relative permittivity at zero frequency, 298.15 K	relative permittivity at zero frequency, 303.15 K
[3], x1 = 0.0436	1106.38	1102.72	1098.89	–	–	–
[3], x1 = 0.1	1093.5	1089.56	1085.52	–	–	–
[3], x1 = 0.2007	1071	1066.79	1062.47	–	–	–
[3], x1 = 0.2997	1049.58	1045.22	1040.76	–	–	–
[3], x1 = 0.3999	1028.62	1024.11	1019.56	–	–	–
[3], x1 = 0.4968	1008.87	1004.21	999.53	–	–	–
[3], x1 = 0.6002	988.3	983.48	978.63	–	–	–
[3], x1 = 0.6985	969.23	964.21	959.16	–	–	–
[3], x1 = 0.7998	950.04	944.82	939.65	–	–	–
[3], x1 = 0.8992	931.65	926.35	921.14	–	–	–
[3], x1 = 0.9499	922.4	917.14	911.97	–	–	–
[3], x1 = 1	913.31	908.19	903.11	–	–	–
[4], x1 = 0.0435	–	–	–	31.3	30.42	29.5
[4], x1 = 0.0998	–	–	–	30.58	29.69	28.76
[4], x1 = 0.197	–	–	–	29.18	28.31	27.4
[4], x1 = 0.2962	–	–	–	27.57	26.74	25.88
[4], x1 = 0.3996	–	–	–	25.72	24.95	24.14
[4], x1 = 0.4964	–	–	–	23.82	23.13	22.39
[4], x1 = 0.5955	–	–	–	21.73	21.13	20.46
[4], x1 = 0.6996	–	–	–	19.43	18.88	18.29
[4], x1 = 0.8001	–	–	–	17.06	16.58	16.06
[4], x1 = 0.8999	–	–	–	14.55	14.13	13.7
[4], x1 = 0.9499	–	–	–	13.2	12.83	12.46
[4], x1 = 1	–	–	–	11.76	11.5	11.19

CCCOCCO [2-propoxyethanol] + OCCOCCOCCO
Settings	mass density, 293.15 K [kg/m3]	mass density, 298.15 K [kg/m3]	mass density, 303.15 K [kg/m3]	relative permittivity at zero frequency, 293.15 K	relative permittivity at zero frequency, 298.15 K	relative permittivity at zero frequency, 303.15 K
[3], x1 = 0.0413	1116.67	1112.44	1108.49	–	–	–
[3], x1 = 0.1061	1105.37	1100.97	1096.78	–	–	–
[3], x1 = 0.1986	1088.75	1084.08	1079.65	–	–	–
[3], x1 = 0.2999	1069.72	1064.9	1060.23	–	–	–
[3], x1 = 0.3999	1050.01	1045.15	1040.34	–	–	–
[3], x1 = 0.5	1029.46	1024.57	1019.67	–	–	–
[3], x1 = 0.6	1008.1	1003.16	998.18	–	–	–
[3], x1 = 0.7002	985.9	980.84	975.77	–	–	–
[3], x1 = 0.8	962.85	957.69	952.55	–	–	–
[3], x1 = 0.9	938.69	933.46	928.29	–	–	–
[3], x1 = 0.95	926.18	920.99	915.81	–	–	–
[3], x1 = 1	913.31	908.19	903.11	–	–	–
[4], x1 = 0.0501	–	–	–	23.33	22.71	22.07
[4], x1 = 0.1003	–	–	–	22.93	22.33	21.68
[4], x1 = 0.2005	–	–	–	22.09	21.51	20.89
[4], x1 = 0.2999	–	–	–	21.25	20.64	20.02
[4], x1 = 0.4001	–	–	–	20.35	19.66	19.06
[4], x1 = 0.5	–	–	–	19.33	18.59	18.02
[4], x1 = 0.6002	–	–	–	18.11	17.41	16.88
[4], x1 = 0.7002	–	–	–	16.71	16.13	15.63
[4], x1 = 0.8	–	–	–	15.16	14.73	14.28
[4], x1 = 0.9	–	–	–	13.53	13.18	12.78
[4], x1 = 0.95	–	–	–	12.69	12.36	11.99
[4], x1 = 1	–	–	–	11.76	11.5	11.19

OCCOCCOCCO [triethylene glycol] + CCCOCCO
x2 = 0
Settings	mass density, 293.15 K [kg/m3]	mass density, 298.15 K [kg/m3]	mass density, 303.15 K [kg/m3]	relative permittivity at zero frequency, 293.15 K	relative permittivity at zero frequency, 298.15 K	relative permittivity at zero frequency, 303.15 K
[3]	1123.74	1119.66	1115.83	–	–	–
[4]	–	–	–	23.69	23.07	22.43

OCCOCCO [diethylene glycol]
Settings	mass density, 293.15 K [kg/m3]	mass density, 298.15 K [kg/m3]	mass density, 303.15 K [kg/m3]	relative permittivity at zero frequency, 293.15 K	relative permittivity at zero frequency, 298.15 K	relative permittivity at zero frequency, 303.15 K
[1]	1116.38	1113.03	1109.47	–	–	–
[2]	–	–	–	31.81	30.95	30.03

CCCOCCO [2-propoxyethanol] + OCCOCCOCCOCCO
Settings	mass density, 293.15 K [kg/m3]	mass density, 298.15 K [kg/m3]	mass density, 303.15 K [kg/m3]	relative permittivity at zero frequency, 293.15 K	relative permittivity at zero frequency, 298.15 K	relative permittivity at zero frequency, 303.15 K
[3], x1 = 0.05	1116.81	1113.41	1110.02	–	–	–
[3], x1 = 0.0996	1109.94	1106.38	1102.89	–	–	–
[3], x1 = 0.1997	1095.15	1091.4	1087.69	–	–	–
[3], x1 = 0.3	1079.09	1075.16	1071.19	–	–	–
[3], x1 = 0.4012	1061.43	1057.31	1053.07	–	–	–
[3], x1 = 0.5	1042.6	1038.25	1033.77	–	–	–
[3], x1 = 0.6	1021.64	1017.06	1012.39	–	–	–
[3], x1 = 0.7	998.51	993.75	988.93	–	–	–
[3], x1 = 0.8	973.03	968.09	963.16	–	–	–
[3], x1 = 0.9	944.82	939.77	934.7	–	–	–
[3], x1 = 0.95	929.54	924.43	919.34	–	–	–
[3], x1 = 1	913.31	908.19	903.11	–	–	–
[4], x1 = 0.05	–	–	–	20.13	19.58	19.01
[4], x1 = 0.1	–	–	–	19.82	19.26	18.68
[4], x1 = 0.2	–	–	–	19.18	18.62	18.05
[4], x1 = 0.3002	–	–	–	18.49	17.95	17.39
[4], x1 = 0.4001	–	–	–	17.73	17.21	16.69
[4], x1 = 0.5003	–	–	–	16.88	16.4	15.91
[4], x1 = 0.6	–	–	–	15.95	15.53	15.07
[4], x1 = 0.7002	–	–	–	14.99	14.61	14.18
[4], x1 = 0.7999	–	–	–	14.01	13.64	13.24
[4], x1 = 0.9	–	–	–	12.96	12.62	12.26
[4], x1 = 0.9501	–	–	–	12.38	12.07	11.73
[4], x1 = 1	–	–	–	11.76	11.5	11.19

OCCOCCO [diethylene glycol] + CCCOCCO
x2 = 0
Settings	mass density, 293.15 K [kg/m3]	mass density, 298.15 K [kg/m3]	mass density, 303.15 K [kg/m3]	relative permittivity at zero frequency, 293.15 K	relative permittivity at zero frequency, 298.15 K	relative permittivity at zero frequency, 303.15 K
[3]	1116.38	1113.03	1109.47	–	–	–
[4]	–	–	–	31.81	30.95	30.03

OCCOCCOCCO [triethylene glycol]
Settings	mass density, 293.15 K [kg/m3]	mass density, 298.15 K [kg/m3]	mass density, 303.15 K [kg/m3]	relative permittivity at zero frequency, 293.15 K	relative permittivity at zero frequency, 298.15 K	relative permittivity at zero frequency, 303.15 K
[1]	1123.74	1119.66	1115.83	–	–	–
[2]	–	–	–	23.69	23.07	22.43
